Where “and” joins values, the source holds several entries; their conditions need not be identical. Identical values can stand only once. Each block holds one compound with its values, some of them ahead of it.
Legend:
[1] = Loading of molecules into commercial contact lenses (Lotrafilcon B); type: physicochemical; conditions: 24 hours at room temperature, listed as FITC-C8F15
Procedure: (§1) Briefly, commercial lenses are individually immersed in wells of a 24 well plate, each containing 1 mL PBS solution of FITC-F ([…]), FITC ([…]), Cip (100 mM) or F-Cip (100 mM), and incubated for 18 h. Then the lenses are washed with PBS three times for 5 min each. All incubation and wash solutions are collected and the amount of each compound is quantified by spectrophotometry. Standard curves are generated with seven standard samples with known concentrations for each individual compound of interest. Specifically, fluorescent compounds FITC and FITC-F are quantified by fluorescence emission at 520 nm (lex. 485 nm), and Cip and F-Cip are quantified by absorbance at 275 nm. The amount of each compound in the above collected solutions is then measured with the standard curve. The amount of the compound incorporated into lenses was determined by subtracting the amount in solution from the total amount added initially.
(§2) Commercial lenses of the above 4 types were removed from blister packs, and blotted gently to remove excess solution. Contact lenses were placed individually into glass vials and immersed in 1 mL of FITC-C8F15 or FITC solution (15.6 μM in phosphate buffered saline) for 24 hours at room temperature. At the end of incubation, lenses were washed three times using phosphate buffered saline. […]

[2] = Time course release of individual compounds from contact lenses; type: physicochemical; conditions: Comfilcon A
Procedure: The modified Comfilcon A lenses are placed into individual wells of a 24 well plate with 1 mL PBS in each well at room temperature. The PBS solution is replaced with fresh PBS every hour for up to 8 h or 15 h, or every 10 min for 2 h or 6 h. The amount of fluorescent compound released into the collected PBS aliquots is quantified spectrophotometrically based on the above standard curve. The amount of F-Cip released into the collected PBS aliquots is quantified using LC-MS (LCQ Deca XP plus with Surveyor LC, Thermo Fisher, Waltham, MA) with electrospray ionization in positive ion mode. Samples ([…] each) are loaded onto the analytical column at […] (Kinetex XB-C18, 2.×50 mm, […], Phenomenex) with the following gradient: 0-3 min, 10-75% (B); 3-7.5 min, 75-91% (B). The mobile phase consists of (A) water containing 0.1% formic acid and (B) acetonitrile containing 0.1% formic acid. Mass spectrometric parameters are as follows: 250° C. capillary temperature, 45 units sheath gas, 10 units aux gas and 4.5 kV spray voltage. […]

[3] = Loading of molecules into commercial contact lenses (Comfilcon A); type: physicochemical
Procedure: as §1, §2

[4] = tested on: Pseudomonas aeruginosa (PA) ATCC 19660; assay: Antibacterial activity of F-Cip (growth inhibition, absorbance at 620 nm); type: cell-based; conditions: ATCC19660, P. aeruginosa ATCC 19660, 18 h at 37° C., n > 3
Procedure: The strain is inoculated and grown at 37° C. for 18 h. The bacterial suspension ([…]) is added into 100 mL of nutrient broth and incubated for 2 h to reach a log growth phase. The resulting bacterial suspension is adjusted to a concentration of ˜10^7 cfu/mL and […] are placed into each well of a 96 well plate. Fifty microliters of F-Cip solution are added into the 96 well plate and incubated at 37° C. for 18 h. The inhibition of microbial growth is determined by measuring the absorbance at 620 nm.

[5] = tested on: P. aeruginosa 19660; assay: In vitro antimicrobial activity of F-Cip-loaded Comfilcon A contact lenses; type: cell-based, Pseudomonas aeruginosa; conditions: Comfilcon A lenses loaded with the compound
[6] = Lens transparency after modification (light transmission); conditions: Comfilcon A lenses embedded with the compound
[7] = tested on: P. aeruginosa 19660; assay: Ex vivo porcine eye infection model, antimicrobial activity of loaded contact lenses; parameters: species or system Pseudomonas aeruginosa (porcine eyes); conditions: Comfilcon A lenses modified with the compound, on infected scratched porcine eyes, 12 h
Procedure: Upon arrival, eyelids and connective tissues are removed and the porcine eyes are sanitized using 5% penicillin/streptomycin (Sigma-Aldrich, St. Louis, MO) for 1 h followed by washing thrice with PBS. Six scratch wounds with a 3×3 crosshatch pattern of length about 1 cm are created on each cornea using a 27G needle. The eyes are placed into holders and 100 ml of bacterial solution containing 10^6 CFU (see “Antibacterial activity of F-Cip” section discussed above) applied to each cornea. The eyes are left at room temperature in a biosafety cabinet for 5 h. After rinsing with 10 mL of PBS, control and modified Comfilcon A contact lenses are placed individually onto the eyes. […] One eye without scratches but incubated with bacteria served as an additional control. A custom-made apparatus is used to flow culture medium over the surface of the porcine eyes. […] Then 100 ml of the bacterial suspension from each sample was taken out and added into a 96-well plate in triplicate, and absorbance at 620 nm was measured and plotted as percentage of bacterial growth inhibition compared to the corneas infected with bacteria but without any treatments. […]

[8] = tested on: human telomerase corneal epithelial cells (hTCEpi); type: cell-based
Procedure: Telomerase modified human corneal epithelial cells were seeded into wells of a 96 well plate with […] KGM-2 medium (Lonza Ltd, Switzerland) and incubated at 37° C. until ˜80% confluence. […] Cells treated with 0.05% benzalkonium chloride (BAC) and without any treatment served as controls. The plate was incubated at 37° C. for 18 h, and cell viability was determined using a cell counting kit-8 assay. […] All lenses are taken out, and cell viability was determined using a cell counting kit-8 assay (Dojindo Molecular Technologies, Inc. Japan).

- amount attached relative to the amount of FITC attached [1]: 6.5 times and 5 times
- duration of nearly linear release ([2]; solution exchange rate 1 mL/h): 6 h
- release profile ([2]; solution exchange rate 1 mL/h): sustained profile
- release rate ([2]; solution exchange rate 1 mL/h): 10.5 % per hour
- release reached at 15 h ([2]; solution exchange rate 1 mL/h, 15 h): ~90%
- duration of sustained linear release ([2]; solution exchange rate 6 mL/h): 120 min
- release rate ([2]; solution exchange rate 6 mL/h): 26.5 % per hour
- time to reach release plateau ([2]; solution exchange rate 6 mL/h): 270 min
- amount attached relative to the amount of FITC attached ([3]; Comfilcon A, 24 hours at room temperature, listed as FITC-C8F15): 11 times and 9 times
Compound: O=C(O)c1cc(NC(=S)NCC(F)(F)C(F)(F)C(F)(F)C(F)(F)C(F)(F)C(F)(F)C(F)(F)F)ccc1-c1c2ccc(=O)cc-2oc2cc(O)ccc12 [Compound 6]

- release at plateau ([2]; solution exchange rate 1 mL/h): ~60%
- release profile ([2]; solution exchange rate 1 mL/h): typical burst release profile
- time to reach release plateau (no more release) ([2]; solution exchange rate 1 mL/h): 3 h
- transmission profile compared with fresh unmodified lens ([6]; between 200 nm and 800 nm): significantly overlap
- Transmission of modified lenses ([6]; between 400 nm and 750 nm): about 100%
- amount loaded onto lens ([3]; Comfilcon A lenses, incubated 18 h in PBS solution): 3.56±4.51 nmol/lens
Compound: O=C(O)c1cn(C2CC2)c2cc(N3CCNCC3)c(F)cc2c1=O [Compound 12, Ciprofloxacin]
- IC50 [4]: 130 ± 35 nM
- growth inhibition [5]: 35.2%
- bacterial growth inhibition [7]: 37.5±8.2%

Compound: Benzalkonium chloride [Benzalkonium chloride (BAC)]
- cells killed [8]: about 100%

Compound: fluorescein isothiocyanate [Compound 7]
- release at plateau ([2]; solution exchange rate 1 mL/h): ~60%
- release profile ([2]; solution exchange rate 1 mL/h): typical burst release profile
- time to reach release plateau (no more release) ([2]; solution exchange rate 1 mL/h): ≤ 2 h
- time to reach release plateau ([2]; solution exchange rate 6 mL/h): ≤ 50 min

Source: patent US12208159B2, “Compositions, methods and kits for treating a contact lens” (University of Houston System, priority 2016, dated 2025)
